{"source": "patent US12410153B2", "about": "“Compounds, compositions and methods” (Avalo Therapeutics, Inc., priority 2014, dated 2025)", "assay": "Repeated once-daily oral dosing with food (Days 1-7) in healthy subjects, PK and PD", "format": "in vivo, human", "settings": "for Cmax: read-out: Cmax, Mean (SD); for AUC(0-inf): read-out: AUCinf, Mean (SD)", "procedure": "A randomized, double-blind, placebo-controlled, parallel-dose group in-patient study is conducted to investigate the pharmacodynamic (PD) effects of crystalline Form II of Compound (I) in healthy subjects.\nThe study is designed as a three-part, sequential study. The sequential nature of the study ensures that a range of doses are investigated first in a young, healthy population (Part 1) before proceeding to higher doses in the healthy population and the comparator populations (intermediate age and elderly) (Parts 2 and 3). For the purposes of this study, “young” refers to a subject who is 18 to 45 years of age, “intermediate age” refers to a subject who is 46 to 64 years of age, and “elderly” refers to a subject who is 65 years of age or older.\nAfter a screening period of up to 21 days (Days −23 to −3), 16 healthy, young male and female subjects are randomly assigned to a dose group as shown in Table 9.\nEach parallel dose group is balanced for gender (approximately equal number of males and females). The randomized subjects are domiciled from Day −1 through Day 8. On Day −1, the subjects receive placebo tablets in the fed state and undergo ambulatory blood pressure monitoring (ABPM) and safety assessments to establish time-matched baselines. On Days 1-7, the subjects receive the study drug in the fed state and undergo safety, pharmacokinetic (PK) and pharmacodynamics (PD) assessments. On Days 8-11, follow-up PK and safety assessments are performed.\nSafety assessments include Clinician-Administered Dissociative States Scale (CADSS), Columbia-Suicide Severity Rating Scale (C-SSRS), concomitant medication, adverse event (AE) and vital sign assessments. In PK assessments, blood samples are taken and analyzed to determine PK parameters such as Cmax, Tmax, AUC0-24, and t1/2. PD assessments include ABPM, plasma brain-derived neurotrophic factor (BDNF) measurements, and Profile of Mood States (POMS) assessments.\nAfter a screening period of up to 21 days (Days −23 to −3), 16 subjects (8 healthy, young male and female subjects, and 8 healthy, intermediate age male and female subjects) are randomly assigned to a dose group as shown in Table 10.\nAfter a screening period of up to 21 days (Days −23 to −3), 16 subjects (8 healthy, young male and female subjects, and 8 healthy, elderly male and female subjects) are randomly assigned to a dose group as shown in Table 11.", "key": {"[1]": {"settings": "both sexes, human, plasma, oral, 12 mg, young subjects, 12 mg, Day 7"}, "[2]": {"settings": "both sexes, human, plasma, oral, 16 mg, young subjects, 16 mg, Day 7"}, "[3]": {"settings": "both sexes, human, plasma, oral, 20 mg, young subjects, 20 mg, Day 7"}}, "note": "Read-outs that look alike come from different tables or passages of the source.", "data": [{"smiles": "Cc1ccc(COC(=O)N2CC[C@H](CNc3ncccn3)[C@H](F)C2)cc1", "note": "[Form II, 4-methylbenzyl (3S, 4R)-3-fluoro-4-[(pyrimidin-2-ylamino)methyl] piperidine-1-carboxylate]", "values": [{"measurement": "AUC(0-t)", "setting": "both sexes, human, plasma, oral, 12 mg, young subjects, 12 mg, Day 1, read-out: AUC0-24, Mean (SD)", "value": 1860, "unit": "ng·h/mL"}, {"measurement": "AUC(0-t)", "setting": "both sexes, human, plasma, oral, 12 mg, young subjects, 12 mg, Day 1, read-out: AUClast, Mean (SD)", "value": 1840, "unit": "ng·h/mL"}, {"measurement": "Cmax", "setting": "both sexes, human, plasma, oral, 12 mg, young subjects, 12 mg, Day 1", "value": 239, "unit": "ng/mL"}, {"measurement": "Vd/F", "setting": "both sexes, human, plasma, oral, 12 mg, young subjects, 12 mg, Day 1, read-out: Vz/F, Mean (SD)", "value": 197, "unit": "L"}, {"measurement": "Tmax", "setting": "both sexes, human, plasma, oral, 12 mg, young subjects, 12 mg, Day 1, read-out: tmax, Mean (SD)", "value": 1.77, "unit": "h"}, {"measurement": "Tmax", "setting": "both sexes, human, plasma, oral, 12 mg, young subjects, 12 mg, Day 1, read-out: tmax, Median", "value": 1.5, "unit": "h"}, {"measurement": "AUC(0-t)", "setting": "both sexes, human, plasma, oral, 12 mg, young subjects, 12 mg, Day 7, read-out: AUC0-24, Mean (SD)", "value": 3060, "unit": "ng·h/mL"}, {"measurement": "AUC(0-inf)", "setting": "[1]", "value": 5930, "unit": "ng·h/mL"}, {"measurement": "AUC(0-t)", "setting": "both sexes, human, plasma, oral, 12 mg, young subjects, 12 mg, Day 7, read-out: AUClast, Mean (SD)", "value": 5610, "unit": "ng·h/mL"}, {"measurement": "Cmax", "setting": "[1]", "value": 274, "unit": "ng/mL"}, {"measurement": "Vd/F", "setting": "both sexes, human, plasma, oral, 12 mg, young subjects, 12 mg, Day 7, read-out: Vss/F, Mean (SD)", "value": 115, "unit": "L"}, {"measurement": "half-life", "setting": "both sexes, human, plasma, oral, 12 mg, young subjects, 12 mg, Day 7, read-out: t1/2, Mean (SD) (converted)", "value": 20.5, "unit": "h"}, {"measurement": "Tmax", "setting": "both sexes, human, plasma, oral, 12 mg, young subjects, 12 mg, Day 7, read-out: tmax, Mean (SD)", "value": 2.42, "unit": "h"}, {"measurement": "Tmax", "setting": "both sexes, human, plasma, oral, 12 mg, young subjects, 12 mg, Day 7, read-out: tmax, Median", "value": 2.5, "unit": "h"}, {"measurement": "AUC(0-t)", "setting": "both sexes, human, plasma, oral, 16 mg, young subjects, 16 mg, Day 1, read-out: AUC0-24, Mean (SD)", "value": 2660, "unit": "ng·h/mL"}, {"measurement": "AUC(0-t)", "setting": "both sexes, human, plasma, oral, 16 mg, young subjects, 16 mg, Day 1, read-out: AUClast, Mean (SD)", "value": 2630, "unit": "ng·h/mL"}, {"measurement": "Cmax", "setting": "both sexes, human, plasma, oral, 16 mg, young subjects, 16 mg, Day 1", "value": 306, "unit": "ng/mL"}, {"measurement": "Vd/F", "setting": "both sexes, human, plasma, oral, 16 mg, young subjects, 16 mg, Day 1, read-out: Vz/F, Mean (SD)", "value": 175, "unit": "L"}, {"measurement": "Tmax", "setting": "both sexes, human, plasma, oral, 16 mg, young subjects, 16 mg, Day 1, read-out: tmax, Mean (SD)", "value": 2.58, "unit": "h"}, {"measurement": "Tmax", "setting": "both sexes, human, plasma, oral, 16 mg, young subjects, 16 mg, Day 1, read-out: tmax, Median", "value": 3, "unit": "h"}, {"measurement": "AUC(0-t)", "setting": "both sexes, human, plasma, oral, 16 mg, young subjects, 16 mg, Day 7, read-out: AUC0-24, Mean (SD)", "value": 4300, "unit": "ng·h/mL"}, {"measurement": "AUC(0-inf)", "setting": "[2]", "value": 8020, "unit": "ng·h/mL"}, {"measurement": "AUC(0-t)", "setting": "both sexes, human, plasma, oral, 16 mg, young subjects, 16 mg, Day 7, read-out: AUClast, Mean (SD)", "value": 7450, "unit": "ng·h/mL"}, {"measurement": "Cmax", "setting": "[2]", "value": 413, "unit": "ng/mL"}, {"measurement": "half-life", "setting": "both sexes, human, plasma, oral, 16 mg, young subjects, 16 mg, Day 7, read-out: t1/2, Mean (SD) (converted)", "value": 20, "unit": "h"}, {"measurement": "Tmax", "setting": "both sexes, human, plasma, oral, 16 mg, young subjects, 16 mg, Day 7, read-out: tmax, Mean (SD)", "value": 1.75, "unit": "h"}, {"measurement": "Tmax", "setting": "both sexes, human, plasma, oral, 16 mg, young subjects, 16 mg, Day 7, read-out: tmax, Median", "value": 1.75, "unit": "h"}, {"measurement": "AUC(0-t)", "setting": "both sexes, human, plasma, oral, 20 mg, young subjects, 20 mg, Day 1, read-out: AUC0-24, Mean (SD)", "value": 3520, "unit": "ng·h/mL"}, {"measurement": "AUC(0-t)", "setting": "both sexes, human, plasma, oral, 20 mg, young subjects, 20 mg, Day 1, read-out: AUClast, Mean (SD)", "value": 3480, "unit": "ng·h/mL"}, {"measurement": "Cmax", "setting": "both sexes, human, plasma, oral, 20 mg, young subjects, 20 mg, Day 1", "value": 384, "unit": "ng/mL"}, {"measurement": "Vd/F", "setting": "both sexes, human, plasma, oral, 20 mg, young subjects, 20 mg, Day 1, read-out: Vz/F, Mean (SD)", "value": 148, "unit": "L"}, {"measurement": "Tmax", "setting": "both sexes, human, plasma, oral, 20 mg, young subjects, 20 mg, Day 1, read-out: tmax, Mean (SD)", "value": 2.17, "unit": "h"}, {"measurement": "Tmax", "setting": "both sexes, human, plasma, oral, 20 mg, young subjects, 20 mg, Day 1, read-out: tmax, Median", "value": 2.25, "unit": "h"}, {"measurement": "AUC(0-t)", "setting": "both sexes, human, plasma, oral, 20 mg, young subjects, 20 mg, Day 7, read-out: AUC0-24, Mean (SD)", "value": 6040, "unit": "ng·h/mL"}, {"measurement": "AUC(0-inf)", "setting": "[3]", "value": 10500, "unit": "ng·h/mL"}, {"measurement": "AUC(0-t)", "setting": "both sexes, human, plasma, oral, 20 mg, young subjects, 20 mg, Day 7, read-out: AUClast, Mean (SD)", "value": 10100, "unit": "ng·h/mL"}, {"measurement": "Cmax", "setting": "[3]", "value": 534, "unit": "ng/mL"}, {"measurement": "half-life", "setting": "both sexes, human, plasma, oral, 20 mg, young subjects, 20 mg, Day 7, read-out: t1/2, Mean (SD) (converted)", "value": 18.8, "unit": "h"}, {"measurement": "Tmax", "setting": "both sexes, human, plasma, oral, 20 mg, young subjects, 20 mg, Day 7, read-out: tmax, Mean (SD)", "value": 1.67, "unit": "h"}, {"measurement": "Tmax", "setting": "both sexes, human, plasma, oral, 20 mg, young subjects, 20 mg, Day 7, read-out: tmax, Median", "value": 1.5, "unit": "h"}, {"measurement": "Tmax", "setting": "both sexes, human, plasma, oral, Day 1, read-out: median Tmax values, range", "value": "2 to 3", "unit": "h"}, {"measurement": "Vd", "setting": "both sexes, human, plasma, oral, Day 7, read-out: average apparent volume of distribution, range", "value": "83 to 116", "unit": "L"}, {"measurement": "half-life", "setting": "both sexes, human, plasma, oral, Day 7, read-out: average t½, range", "value": "17 to 25", "unit": "h"}, {"measurement": "half-life", "setting": "both sexes, human, plasma, oral, Day 7, read-out: average t½, range across genders", "value": "21 to 24", "unit": "h"}, {"measurement": "Tmax", "setting": "both sexes, human, plasma, oral, Day 7, read-out: median Tmax values, range", "value": "1.5 to 3", "unit": "h"}, {"measurement": "Day 7/Day 1 Cmax Ratio, Mean (SD)", "setting": "elderly, 12 mg", "value": "1.53 (0.13)"}, {"measurement": "Observed Accumulation Index, Mean (SD)", "setting": "elderly, 12 mg", "value": "2.12 (0.22)"}, {"measurement": "Steady State Accumulation Index, Mean (SD)", "setting": "elderly, 12 mg", "value": "1.30 (0.11)"}, {"measurement": "CL/F, Mean (SD)", "setting": "elderly, 12 mg, Day 1", "value": "5.87 (1.32) L/h"}]}]}
